Experimental data reported in patent publication US20100099561A1, “HETEROBICYCLIC ALKYLTHIO-BRIDGED ISOXAZOLINES” (E.I. DU PONT DE NEMOURS AND COMPANY, priority 2008, published 2010).

Assays:
Assay type in all cases: in vivo
[1] = test system: barnyardgrass (Echinochloa crus-galli); assay: Test A preemergence, barnyardgrass; details: 0 to 100 scale (0 no effect, 100 complete control)
Method in brief: (§1)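 In a greenhouse, loam–sand potted species were treated with surfactant-formulated compound, preemergence via directed soil spray and postemergence at 2–10 cm height, one- to two-leaf stage. Response assessed visually at about ten days; 100 means complete control.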

[2] = test system: large crabgrass (Digitaria sanguinalis); assay: Test A preemergence, large crabgrass; details: 0 to 100 scale (0 no effect, 100 complete control)
Method in brief: as §1

[3] = test system: giant foxtail (Setaria faberi); assay: Test A preemergence, giant foxtail; details: 0 to 100 scale (0 no effect, 100 complete control)
Method in brief: as §1

[4] = test system: velvetleaf (Abutilon theophrasti); assay: Test A preemergence, velvetleaf; details: 0 to 100 scale (0 no effect, 100 complete control)
Method in brief: as §1

corn (Zea mays) [5] = assay: Test A preemergence, corn; details: 0 to 100 scale (0 no effect, 100 complete control)
Method in brief: as §1

[6] = test system: giant foxtail (Setaria faberi); assay: Test A postemergence, giant foxtail; details: 0 to 100 scale (0 no effect, 100 complete control)
Method in brief: as §1

[7] = test system: pigweed (Amaranthus retroflexus); assay: Test A postemergence, pigweed; details: 0 to 100 scale (0 no effect, 100 complete control)
Method in brief: as §1

[8] = test system: velvetleaf (Abutilon theophrasti); assay: Test A postemergence, velvetleaf; details: 0 to 100 scale (0 no effect, 100 complete control)
Method in brief: as §1

corn (Zea mays) [9] = assay: Test A postemergence, corn; details: 0 to 100 scale (0 no effect, 100 complete control)
Method in brief: as §1

[10] = test system: green foxtail (Setaria viridis); assay: Test B preemergence, green foxtail; details: scale 0 to 100
Method in brief: (§2)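 Seeds are planted in a loam–sand blend and treated preemergence using a non-phytotoxic solvent formulation including surfactant. Greenhouse incubation lasts 13 to 15 days. Ratings run 0–100 versus controls.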

[11] = test system: cocklebur (Xanthium strumarium); assay: Test B preemergence, cocklebur; details: scale 0 to 100
Method in brief: as §2

corn (Zea mays) [12] = assay: Test B preemergence, corn; details: scale 0 to 100
Method in brief: as §2

[13] = test system: giant foxtail (Setaria faberii); assay: Test B preemergence, giant foxtail; details: scale 0 to 100
Method in brief: as §2

[14] = test system: goosegrass (Eleusine indica); assay: Test B preemergence, goosegrass; details: scale 0 to 100
Method in brief: as §2

[15] = test system: johnsongrass (Sorghum halepense); assay: Test B preemergence, johnsongrass; details: scale 0 to 100
Method in brief: as §2

[16] = test system: sunflower (common oilseed sunflower, Helianthus annuus); assay: Test B preemergence, sunflower; details: Preemergence, scale 0 to 100
Method in brief: as §2

rice (Oryza sativa) = assay: Test B flooded paddy test, rice; details: Flood, scale 0 to 100
Method in brief: (§3)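 Rice, umbrella sedge, ducksalad and barnyardgrass at 2-leaf stage; pots flooded to 3 cm, compounds applied into paddy water, depth held throughout. Greenhouse 13 to 15 days, then visual rating vs untreated controls on 0–100 scale (0 no effect, 100 complete control); dash means no test result.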

[17] = test system: umbrella sedge (Cyperus difformis); assay: Test B flooded paddy test, umbrella sedge; details: Flood, scale 0 to 100
Method in brief: as §3

[18] = test system: ducksalad (Heteranthera limosa); assay: Test B flooded paddy test, ducksalad; details: Flood, scale 0 to 100
Method in brief: as §3

[19] = test system: barnyardgrass (Echinochloa crus-galli); assay: Test B flooded paddy test, barnyardgrass; details: Flood
Method in brief: as §3

## CC1(C)CC(S(=O)(=O)Cc2c(C(F)(F)F)nc3n(c2=O)CCCC3)=NO1 [Compound 8, 3-[[(4,5-dihydro-5,5-dimethyl-3-isoxazolyl)sulfonyl]methyl]-6,7,8,9-tetrahydro-2-(trifluoromethyl)-4H-pyrido[1,2-α]pyrimidin-4-one]
[1]; 125 g ai/ha
  Plant response rating, Barnyardgrass: 90
[1]; 500 g ai/ha
  Plant response rating, Barnyardgrass: 90
[2]; 125 g ai/ha
  Plant response rating, Crabgrass, Large: 90
[2]; 500 g ai/ha
  Plant response rating, Crabgrass, Large: 100
[3]; 125 g ai/ha
  Plant response rating, Foxtail, Giant: 100
[3]; 500 g ai/ha
  Plant response rating, Foxtail, Giant: 100
[4]; 125 g ai/ha
  Plant response rating, Velvetleaf: 20
[4]; 500 g ai/ha
  Plant response rating, Velvetleaf: 90
Corn (Zea mays) [5]; 125 g ai/ha
  Plant response rating, Corn: 0
Corn (Zea mays) [5]; 500 g ai/ha
  Plant response rating, Corn: 20
[6]; 125 g ai/ha
  Plant response rating, Foxtail, Giant: 70
[6]; 500 g ai/ha
  Plant response rating, Foxtail, Giant: 90
[7]; 125 g ai/ha
  Plant response rating, Pigweed: 10
[7]; 500 g ai/ha
  Plant response rating, Pigweed: 60
[8]; 125 g ai/ha
  Plant response rating, Velvetleaf: 50
[8]; 500 g ai/ha
  Plant response rating, Velvetleaf: 70
Corn (Zea mays) [9]; 125 g ai/ha
  Plant response rating, Corn: 0
Corn (Zea mays) [9]; 500 g ai/ha
  Plant response rating, Corn: 60
[10]; 16 g ai/ha
  Plant response rating, Foxtail, Green: 70
[10]; 31 g ai/ha
  Plant response rating, Foxtail, Green: 85
[10]; 62 g ai/ha
  Plant response rating, Foxtail, Green: 98
[10]; 125 g ai/ha
  Plant response rating, Foxtail, Green: 98
[11]; 16 g ai/ha
  Plant response rating, Cocklebur: 0
[11]; 31 g ai/ha
  Plant response rating, Cocklebur: 0
[11]; 62 g ai/ha
  Plant response rating, Cocklebur: 0
[11]; 125 g ai/ha
  Plant response rating, Cocklebur: 0
Corn (Zea mays) [12]; 16 g ai/ha
  Plant response rating, Corn: 10
Corn (Zea mays) [12]; 31 g ai/ha
  Plant response rating, Corn: 15
Corn (Zea mays) [12]; 62 g ai/ha
  Plant response rating, Corn: 45
Corn (Zea mays) [12]; 125 g ai/ha
  Plant response rating, Corn: 55
[13]; 16 g ai/ha
  Plant response rating, Foxtail, Giant: 80
[13]; 31 g ai/ha
  Plant response rating, Foxtail, Giant: 90
[13]; 62 g ai/ha
  Plant response rating, Foxtail, Giant: 98
[13]; 125 g ai/ha
  Plant response rating, Foxtail, Giant: 100
[14]; 16 g ai/ha
  Plant response rating, Goosegrass: 98
[14]; 31 g ai/ha
  Plant response rating, Goosegrass: 98
[14]; 62 g ai/ha
  Plant response rating, Goosegrass: 100
[14]; 125 g ai/ha
  Plant response rating, Goosegrass: 100
[15]; 16 g ai/ha
  Plant response rating, Johnsongrass: 75
[15]; 31 g ai/ha
  Plant response rating, Johnsongrass: 90
[15]; 62 g ai/ha
  Plant response rating, Johnsongrass: 100
[15]; 125 g ai/ha
  Plant response rating, Johnsongrass: 100
[16]; 16 g ai/ha
  Plant response rating, Sunflower: 0
[16]; 31 g ai/ha
  Plant response rating, Sunflower: 15
[16]; 62 g ai/ha
  Plant response rating, Sunflower: 40
[16]; 125 g ai/ha
  Plant response rating, Sunflower: 45
Rice (Oryza sativa); 62 g ai/ha
  Plant response rating, Rice: 0
Rice (Oryza sativa); 250 g ai/ha
  Plant response rating, Rice: 0
[17]; 62 g ai/ha
  Plant response rating, Sedge, Umbrella: 0
[17]; 250 g ai/ha
  Plant response rating, Sedge, Umbrella: 20
[18]; 62 g ai/ha
  Plant response rating, Ducksalad: 0
[18]; 250 g ai/ha
  Plant response rating, Ducksalad: 20
[19]; 62 g ai/ha, scale 0 to 100
  Plant response rating, Barnyardgrass: 0
[19]; 250 g ai/ha, scale 0 to 100 (0 no effect, 100 complete control)
  Plant response rating, Barnyardgrass: 0
